“Also recorded” adds a separate entry of the source. Marks after values point to notes of the source that are not given here.
Key:
Malme-3M pERK = details: Malme-3M cells; cited from earlier work
[1] = tested on: Rat Collagen-Induced Arthritis; details: PO, QD×7; cited from earlier work
IL-1β = details: human whole blood, TPA-induced; cited from earlier work
[2] = tested on: Rat carrageenan paw edema; details: PO, once; cited from earlier work
MEK = details: read-out: MEK Enzyme IC50; cited from earlier work
[3] = tested on: rat adjuvant-induced arthritis; details: PO, QD×7; cited from earlier work
25 receptors = details: cited from earlier work
TNF-α = details: human whole blood, TPA-induced; cited from earlier work
~200 other kinases = ~200 other kinases at 1 μM; cited from earlier work
[4] = tested on: Cytochrome p450 (5 major isoforms); details: read-out: Cytochrome p450 Inhibition-IC50; cited from earlier work
IL-6 = details: human whole blood, TPA-induced; cited from earlier work
Fmr1 KO mouse = experiment: Audiogenic seizures (AGS) in Fmr1 KO and WT mice;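 as to all read-outs here: male WT and Fmr1 KO littermates aged P17-25 given a 2 min seizure-provoking stimulus, scored blind to genotype for wild running, clonic and tonic seizures and death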; details: for AGS incidence: 1 h, vehicle KO about 74%; for incidence of AGS: Example 1, vehicle KO 73%; for incidence of AGS / Clonic seizure incidence / Death incidence / Tonic seizure incidence / WR (wild running) incidence: i.p. 100 mg/kg SL 327 or 30 mg/kg Formula I; for Clonic seizure incidence / Death incidence / Tonic seizure incidence / WR (wild running) incidence: 1 h before stimulus
Method: One hour later, mice were exposed to a seizure-inducing stimulus for 2 minutes, and scored for four stages of AGS: wild running (WR; pronounced, undirected running and thrashing), clonic seizure (violent spasms accompanied by loss of balance), tonic seizure (postural rigidity in limbs), and death [35, 37, 39]. All animals were injected and scored blind to genotype.
AGS: Experiments were performed using male WT and Fmr1 KO littermates (P17-25) as described herein. […] Immediately prior to testing, mice were transferred to a quiet (about <60 dB ambient sound) room for 1 hour. Mice were then transferred to a transparent plastic test chamber and, after 1 minute of habituation, exposed to a 130 dB stimulus (recorded sampling of a modified personal alarm, RADIOSHACK model 49-1010) for about 2 minutes. Each testing session contained mice from both genotype and treatment groups. For each group, incidence of the following stages of AGS was calculated: wild running (WR; pronounced, undirected running and thRashing), clonic seizure (violent spasms accompanied by loss of balance), tonic seizure (postural rigidity in limbs), and death. All aspects of the experiments were performed blind to genotype.
For each mouse, four stages of increasing AGS severity were scored: wild running, clonic seizure, tonic seizure, or death[16].

ERK1/2 = ERK1/2 activation (phosphorylation) in hippocampal slices, immunoblotting; type: cell-based, mouse; details: for ERK1/2 activation (phosphorylation; WT veh = 100%): 1 hour
Ras = Ras activation assay (Ras-GTP pull-down) in hippocampal slices; type: cell-based, mouse
Method: Ras activation assay: Slices (4-6 per animal) were prepared exactly as for metabolic labeling, and Ras-GTP isolated using the Active Ras Pull-Down and Detection kit (PIERCE) according to manufacturer's instructions.
Active (GTP-bound) Ras was isolated from homogenized slices using a GST-pull down assay, and compared to total Ras.

[5] = tested on: protein synthesis in WT and Fmr1 KO hippocampal slices; experiment: Protein synthesis in hippocampal slices (35S-Met/Cys metabolic labeling); type: cell-based, mouse
Method: Dorsal hippocampal slices were prepared from juvenile (postnatal day 25-32) WT and Fmr1 KO mice using the same metabolic labeling procedure described in [35]. Briefly, 500 μm slices were recovered in carbogenating, 32.5° C. ACSF (in mM: NaCl: 124, KCl: 3, NaH2PO4: 1.25, NaHCO3: 26, dextrose: 10, MgCl2: 1, CaCl2: 2, saturated with 95% O2 and 5% CO2), pre-incubated in actinomycin D (ActD, 25 μM) for 30 min to prevent transcription, and protein synthesis measured over 30 minutes via incorporation of a ^35S-labeled methionine/cysteine mix (^35S-Met/Cys).
Group I mGluR activate several signal pathways.
Mice: Fmr1 KO (Jackson Labs) and WT littermates, bred on the C57BL6 or FVB background strains, were group housed and maintained in a 12:12 h light:dark cycle. An In vitro hippocampal slice assay was used herein to recapitulate the exaggerated protein synthesis phenotype seen in the Fmr1 KO[6].
Metabolic labeling: Experiments were performed on male WT and Fmr1 KO mice (postnatal day 25-32), blind to genotype, as described herein. Briefly, 500 μm slices were recovered for 4 h in 32.5° C. […] After labeling, slices were homogenized, and labeled proteins isolated by TCA precipitation. Samples were read with a scintillation counter and also subjected to a protein concentration assay (BIO-RAD). Final data were expressed as counts per minute (CPM) per μg protein, normalized to the ^35S-Met/Cys ACSF used for incubation, and the average incorporation of all samples analyzed in that experiment.

[6] = Fmr1 KO mice, C57BL6, 30 mg/kg Formula I acid i.p.
[7] = Fmr1 KO hippocampal slices, 10 μM Formula I
[8] = Fmr1 KO hippocampal slices, 50 μM Formula I
[9] = Fmr1 KO hippocampal slices, 100 μM Formula I in lactone form (Example 1)
[10] = Fmr1 KO hippocampal slices, 100 μM Formula I in lactone form (Example 1), listed as LOVASTATIN
[11] = WT hippocampal slices, 10 μM Formula I
[12] = WT hippocampal slices, 50 μM Formula I
[13] = WT hippocampal slices, 5 μM U0126

Compound: Cn1cnc2c(F)c(Nc3ccc(Br)cc3F)c(C(=O)NOCCO)cc21 [ARRY-162]
- IC50 (Malme-3M pERK): 11 nM
- Rat Collagen-Induced Arthritis ED50 [1]: 3 mg/kg
- IC50 (IL-1β): 21 nM
- Rat carrageenan paw edema ED50 [2]: ~7 mg/kg
- IC50 (MEK): 12 nM
- rat adjuvant-induced arthritis ED50 [3]: 10 mg/kg
- receptor screen (25 receptors): clean
- IC50 (TNF-α): 23 nM
- Kinase selectivity screen (~200 other kinases): no activity
- IC50 [4]: > 25000 nM
- IC50 (IL-6): 21 nM

Compound: CCC(C)C(=O)OC1CC(C)C=C2C=CC(C)C(CCC(O)CC(O)CC(=O)[O-])C21.[Na+] (stereo not drawn) [Formula I acid]
- AGS severity (distribution of AGS scores) (Fmr1 KO mouse; [6]): attenuates AGS severity
- AGS incidence (Fmr1 KO mouse; [6]): significantly reduces AGS incidence

Compound: CC[C@H](C)C(=O)O[C@H]1C[C@@H](C)C=C2C=C[C@H](C)[C@H](CC[C@@H]3C[C@@H](O)CC(=O)O3)[C@H]21 [Formula I, (1S,3R,7S,8S,8aR)-8-{2-[(2R,4R)-4-hydroxy-6-oxooxan-2-yl]ethyl}-3,7-dimethyl-1,2,3,7,8,8a-hexahydronaphthalen-1-yl-(2S)-2-methylbutanoate]
- ERK1/2 activation (phosphorylation; WT veh = 100%) (ERK1/2; [7]): 90±6%
- ERK1/2 activation (phosphorylation; WT veh = 100%) (ERK1/2; [8]): 78±5%
- ERK1/2 activation (WT vehicle = 100%) (ERK1/2; [9]): 181±6%
- ERK1/2 activation (WT vehicle = 100%) (ERK1/2; [10]): reduce ERK1/2 activation
- ERK1/2 activation (phosphorylation; WT veh = 100%) (ERK1/2; [11]): 94±8%
- ERK1/2 activation (phosphorylation; WT veh = 100%) (ERK1/2; [12]): 84±5%
- ERK1/2 activation (WT vehicle = 100%) (ERK1/2; WT hippocampal slices, 100 μM Formula I in lactone form (Example 1)): 187±6%
- ERK1/2 in hippocampal slices (in words) (ERK1/2; hippocampal slices, Formula I acid form, FIGS. 2F and 2G): downregulates ERK1/2
- active (GTP-bound) Ras compared to total Ras (WT veh = 100%) (Ras; [7]): 89±8%
- active (GTP-bound) Ras compared to total Ras (WT veh = 100%) (Ras; [8]): 61±9%
- active (GTP-bound) Ras compared to total Ras (WT veh = 100%) (Ras; [11]): 87±14%
- active (GTP-bound) Ras compared to total Ras (WT veh = 100%) (Ras; [12]): 61±12%
- Ras activation in hippocampal slices (in words) (Ras; hippocampal slices, Formula I acid form, FIGS. 2D and 2E): inhibits Ras activation
- AGS severity (distribution of AGS scores) (Fmr1 KO mouse; [6]): significantly lessens the severity of seizures
- AGS incidence (Fmr1 KO mouse; [6]): about 28%
- AGS severity (distribution of AGS scores) (Fmr1 KO mouse; Fmr1 KO mice, C57BL6, 30 mg/kg Formula I lactone i.p.): significantly reduces AGS severity
- AGS severity (distribution of AGS scores) (Fmr1 KO mouse; Fmr1 KO mice, C57BL6, 100 mg/kg Formula I acid i.p.): attenuates AGS severity
- AGS severity (distribution of AGS scores) (Fmr1 KO mouse; Fmr1 KO mice, C57BL6, oral, 48 h feeding of 0.1% Formula I chow): significantly reduces AGS severity
- incidence of AGS (Fmr1 KO mouse; Fmr1 KO mice): 21%
- AGS severity (distribution of AGS scores) (Fmr1 KO mouse; Fmr1 KO mice, FVB, 30 mg/kg Formula I i.p., 30 mg/kg): similarly unaffected; also recorded: does not significantly reduce AGS severity
- AGS severity (distribution of AGS scores) (Fmr1 KO mouse; Fmr1 KO mice, FVB, 100 mg/kg Formula I i.p., 100 mg/kg): significantly reduces AGS severity
- Clonic seizure incidence (Fmr1 KO mouse; Fmr1 KO mice): 12%*
- Death incidence (Fmr1 KO mouse; Fmr1 KO mice): 8%
- Tonic seizure incidence (Fmr1 KO mouse; Fmr1 KO mice): 6%*
- WR (wild running) incidence (Fmr1 KO mouse; Fmr1 KO mice): 21%*
- Clonic seizure incidence (Fmr1 KO mouse; WT mice): 8%*
- Death incidence (Fmr1 KO mouse; WT mice): 8%
- Tonic seizure incidence (Fmr1 KO mouse; WT mice): 8%
- WR (wild running) incidence (Fmr1 KO mouse; WT mice): 13%**
- protein synthesis (WT veh = 100%) ([5]; Fmr1 KO hippocampal slices, 10 μM Formula I (acid form, Example 2)): 115±7%
- protein synthesis (WT vehicle = 100%) [5, 9]: 104±2%
- protein synthesis (WT vehicle = 100%) [5, 10]: can correct protein synthesis
- protein synthesis (WT veh = 100%) ([5]; WT hippocampal slices, 10 μM Formula I (acid form, Example 2)): 103±4%
- protein synthesis (WT veh = 100%) ([5]; WT hippocampal slices, 50 μM Formula I (acid form, Example 2)): 88±5%

Compound: N#CC(=C(N)Sc1ccccc1N)C(C#N)=C(N)Sc1ccccc1N [Formula U0126, 1,4-diamino-2,3-dicyano-1,4-bis[2-aminophenylthio]butadiene]
- ERK1/2 activation (WT vehicle = 100%) (ERK1/2; [13]): 15±3%
- protein synthesis (WT vehicle = 100%) [5, 13]: 94±6%

Compound: Cc1cccc(C#Cc2ccccc2)n1 [MPEP]
- protein synthesis (WT vehicle = 100%) ([5]; Fmr1 KO hippocampal slices, 50 μM MPEP, 5 minutes): 95±2%
- protein synthesis (WT vehicle = 100%) ([5]; WT hippocampal slices, 50 μM MPEP, 5 minutes): 104±2%

Compound: N#C/C(=C(\N)Sc1ccc(N)cc1)c1ccccc1C(F)(F)F [SL 327, alpha-[amino[(4-aminophenyl)thio]methylene]-2-(trifluoromethyl)benzeneacetonitrile]
- incidence of AGS (Fmr1 KO mouse; Fmr1 KO mice): 0%
- Clonic seizure incidence (Fmr1 KO mouse; Fmr1 KO mice): 0%*
- Death incidence (Fmr1 KO mouse; Fmr1 KO mice): 0%
- Tonic seizure incidence (Fmr1 KO mouse; Fmr1 KO mice): 0%*
- WR (wild running) incidence (Fmr1 KO mouse; Fmr1 KO mice): 0%*
- Clonic seizure incidence (Fmr1 KO mouse; WT mice): 0%*
- Death incidence (Fmr1 KO mouse; WT mice): 0%
- Tonic seizure incidence (Fmr1 KO mouse; WT mice): 0%
- WR (wild running) incidence (Fmr1 KO mouse; WT mice): 0%*
